# US20070270332A1, “METHODS AND ASSAYS USEFUL IN THE TREATMENT OF ALCOHOL DEPENDENCE OR ALCOHOL ABUSE” (priority 1998, published 2007)
# Read-outs that look alike come from different tables or passages of the source.
# How the values were obtained:
# [1] = test system: alcohol preferring Syrian golden hamsters; assay: Ethanol intake suppression (antidipsotropic activity) in alcohol preferring Syrian golden hamsters; details: for ethanol intake suppression: equivalent doses (0.07 meq/hamster/day), FIG. 1; for ETOH Intake Suppression, %: ethanol-preferring golden hamsters, equivalent doses, i.p.; for suppression of hamster ethanol intake: i.p. dose or equivalent doses
# [2] = test system: hamster liver mitochondria (MAO/ALDH pathway, 5-HT as substrate); assay: Mitochondria-catalyzed 5-HT metabolism (5-HIAL, 5-HIAA, 5-HT depletion), hamster liver mitochondria; assay type: biochemical; details: for inhibition of 5-HIAA formation: isolated hamster liver mitochondria
# From the text: (§1) Hamster liver mitochondrial preparations were obtained by the well-known method of Johnson & Lardy (see John, D. & Lardy, H. (1967) Meth. Enzymol. 10, 94). The integrity of these mitochondrial preparations, evaluated by measuring their latent glutamate dehydrogenase activity according to the methods of Beaufay, H., and Bendall, D. S., Baudhuin, P. & deDuve, C. (1959) J. Cell Biol. 73, 623-628 before and after the metabolic study, were over 97% and 93%, respectively.
# (§2) Reactions were initiated by the addition of mitochondria and allowed to proceed in a 37° C. shaking water bath for 30 min. Reactions were terminated by the addition of 0.05 ml each of ice-cold 1 M HClO4 and 10 mM EDTA. The samples were kept on ice for 1 hour followed by centrifugation (12,000 rpm) in a microcentrifuge (Microspin 24S, Sorvall) for 15 min. DA, 5-HT, and their major metabolites in the supernatant were analyzed directly by HPLC.
# The HPLC system used in this study consisted of a BAS Sample Sentinel Autosampler with refrigerated (4° C.) sample compartment, PM80 solvent delivery system, and a LC-26 on-line degasser. The detector is a LC-4C amperometric controller with a CC-5 cross-flow thin-layer (0.005″) electrochemical cell composed of glassy carbon and silver/silver chloride reference electrode (Bioanlytical Systems, Inc., West Lafayette, Ind.). For routine analysis, the potential and sensitivity were set at 650 mV and 20 nA full scale, respectively. Column temperature was maintained with a Waters Temperature Control Module (Waters, Milford, Mass.). DA and 5-HT were analyzed on a BAS phase II ODS-3, 3 μm, 3.2×100 mm column. […] DOPAL, DOPAC, 5-HIAL and 5-HIAA were analyzed on a Beckman ultrasphere ODS-5, 5μ, 4.6×250 mm column. […] Data were collected and analyzed with a Nelson data collection system (Perkin-Elmer) or a Waters 740 Data Module. The effect of a test compound on 5-HIAL or DOPAL accumulation measured at five different concentrations were averaged and presented as % of control.
# [3] = test system: hamster liver mitochondria (MAO/ALDH pathway, DA as substrate); assay: Mitochondria-catalyzed DA metabolism (DOPAC formation), hamster liver mitochondria; assay type: biochemical; details: isolated hamster liver mitochondria
# From the text: as §1
# as §2, with “The samples were kept on ice for 1 hour followed by centrifugation (12,000 rpm) in a microcentrifuge (Microspin 24S, Sorvall) for 15 min.” left out
# The HPLC system used in this study consisted of a BAS Sample Sentinel Autosampler with refrigerated (4° C.) sample compartment, PM80 solvent delivery system, and a LC-26 on-line degasser. […] DA and 5-HT were analyzed on a BAS phase II ODS-3, 3 μm, 3.2×100 mm column. […] DOPAL, DOPAC, 5-HIAL and 5-HIAA were analyzed on a Beckman ultrasphere ODS-5, 5μ, 4.6×250 mm column. […] Data were collected and analyzed with a Nelson data collection system (Perkin-Elmer) or a Waters 740 Data Module. The effect of a test compound on 5-HIAL or DOPAL accumulation measured at five different concentrations were averaged and presented as % of control.
# [4] = biological target: T1, Human Mitochondrial ALDH (ALDH-2) (Homo sapiens, UniProt P05091); details: literature; cited from earlier work
# T1 construct: Human, hamster, and rat liver mitochondrial and cytosolic ALDH isozymes were purified as described in Klyosov; from tissue; host or cells: human liver
# T1 sequence (P05091 18-517): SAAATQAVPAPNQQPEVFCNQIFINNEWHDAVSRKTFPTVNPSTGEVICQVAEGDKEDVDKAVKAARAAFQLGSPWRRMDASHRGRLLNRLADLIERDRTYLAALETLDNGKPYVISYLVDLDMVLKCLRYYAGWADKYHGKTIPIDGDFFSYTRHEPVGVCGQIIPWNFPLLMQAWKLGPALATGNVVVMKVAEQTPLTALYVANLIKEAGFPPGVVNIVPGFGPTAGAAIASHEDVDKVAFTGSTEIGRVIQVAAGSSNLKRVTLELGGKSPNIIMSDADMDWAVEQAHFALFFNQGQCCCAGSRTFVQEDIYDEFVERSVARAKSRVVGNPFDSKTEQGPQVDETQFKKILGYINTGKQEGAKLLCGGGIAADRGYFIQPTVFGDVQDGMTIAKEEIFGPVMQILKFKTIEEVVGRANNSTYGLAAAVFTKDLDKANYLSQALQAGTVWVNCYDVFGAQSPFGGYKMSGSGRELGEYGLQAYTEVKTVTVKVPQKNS
# [5] = test system: rats; details: cited from earlier work
# [6] = biological target: T1, Human Mitochondrial ALDH (ALDH-2); assay: Inhibition of human mitochondrial ALDH (ALDH-2), competitive and noncompetitive inhibition constants; assay type: biochemical; details: for ALDH-2 inhibitory potency, in words: comparison with daidzin, daidzein or another compound
# [7] = test system: rat liver mitochondria; assay: Mitochondria-catalyzed 5-HIAA formation, rat liver mitochondria; details: same concentration range
# [8] = human mitochondrial ALDH, read-out: ALDH-2 Ki (competitive inhibition constant)
# [9] = human mitochondrial ALDH, read-out: ALDH-2 αKi (noncompetitive inhibition constant)
"Ki [6, 8]","Ki [6, 9]",SMILES,ethanol intake suppression [1],"ETOH Intake Suppression, % [1]",also measured
–,–,"O=c1c(-c2ccc(O)cc2)coc2cc(O)ccc12 [Compound 1, daidzein]",−30%,32%,suppression of hamster ethanol intake [1]: 32%
–,–,"O=c1c(-c2ccc(O)cc2)coc2cc(O[C@@H]3O[C@H](CO)[C@@H](O)[C@H](O)[C@H]3O)ccc12 [Compound 2, daidzin]",> 60%,64%,effect on mitochondria-catalyzed 5-HT depletion ([2]; at concentrations that significantly inhibit 5-HIAA formation): little or no effect; inhibition of 5-HIAA formation [2]: potently inhibit the formation of 5-hydroxyindole-3-acetic acid (5-HIAA); inhibition of DOPAC formation [3]: potently inhibit; inhibition of human mitochondrial aldehyde dehydrogenase (ALDH-2) [4]: potent and selective inhibitor; suppression of ethanol consumption in rats [5]: confirmed; suppression of hamster ethanol intake [1]: 64%
–,–,"O=C(O)CCCCCOc1ccc2c(=O)c(-c3ccc(O)cc3)coc2c1 [Compound 3, 7-O-[ω-carboxypentyl]-daidzein]",–,70%,suppression of hamster ethanol intake [1]: about 70%
9 nM,140 nM,"O=C(O)CCCCCCOc1ccc2c(=O)c(-c3ccc(O)cc3)coc2c1 [Compound 4, 7-O-[ω-carboxyhexyl]-daidzein]",–,69%,suppression of hamster ethanol intake [1]: about 70%
4 nM,50 nM,O=C(O)CCCCCCCCCOc1ccc2c(=O)c(-c3ccc(O)cc3)coc2c1 [Compound 5],–,84%,–
–,–,O=C(O)CCCCCCCCCCOc1ccc2c(=O)c(-c3ccc(O)cc3)coc2c1 [Compound 6],–,86%,–
–,–,O=c1c(-c2ccc(O)cc2)coc2cc(OCCC3OCCCO3)ccc12 [Compound 8],−30%,32%,–
–,70 nM,"O=c1c(-c2ccc(O)cc2)coc2cc(OCCCCCCBr)ccc12 [Compound 10, 7-O-(6-bromohexyl)-daidzein]",only marginally active,14%,"Ki ([6]; read-out: Ki, human ALDH-2): 3 nM"
–,80 nM,"CC[N+](CC)(CC)CCCCCCOc1ccc2c(=O)c(-c3ccc(O)cc3)coc2c1 [Compound 11, 7-O-(triethyl-6-aminohexyl)-daidzein]",–,–,"Ki ([6]; read-out: Ki, human ALDH-2): 5 nM"
36 nM,600 nM,"NCCCCCCOc1ccc2c(=O)c(-c3ccc(O)cc3)coc2c1 [Compound 13, 7-O-(6-aminohexyl)-daidzein]",did not suppress ethanol intake,–,–
80 nM,1600 nM,"CC[N+](CC)(CC)CCOc1ccc2c(=O)c(-c3ccc(O)cc3)coc2c1 [Compound 15, 7-O-(triethyl-6-aminoethyl)-daidzein]",–,–,–
1060 nM,10600 nM,"O=C(CCl)Oc1ccc2c(=O)c(-c3ccc(O)cc3)coc2c1 [Compound 16, 7-O-daidzein-2-chloroacetate]",–,–,"ALDH-2 inhibitory potency, in words [6]: less potent inhibitors relative to daidzin"
1800 nM,20000 nM,"O=C(CBr)Oc1ccc2c(=O)c(-c3ccc(O)cc3)coc2c1 [Compound 17, 7-O-daidzein-2-bromoacetate]",–,–,"ALDH-2 inhibitory potency, in words [6]: less potent inhibitors relative to daidzin"
–,–,"O=c1c(-c2ccc(O)cc2)coc2c([C@@H]3O[C@H](CO)[C@@H](O)[C@H](O)[C@H]3O)c(O)ccc12 [Compound 20, Puerarine]",–,0%,"inhibition of 5-HIAA formation [2]: does not inhibit 5-HIAA formation; suppression of ethanol consumption in rats [5]: suppresses ethanol consumption in rats; inhibition of 5-HIAA formation [7]: does inhibit 5-HIAA formation; suppression of ethanol consumption in hamsters, in words ([1]; hamsters): not hamsters; suppression of hamster ethanol intake [1]: do not exert any significant effect on ethanol intake"
35000 nM,110000 nM,"O=c1cc(-c2ccccc2)oc2cc(O)cc(O)c12 [Compound 21, Chrysin, reference compound]",–,0%,–
35000 nM,270000 nM,"O=c1cc(-c2ccccc2)oc2c(O)c(O)ccc12 [Compound 22, 7,8-Dihydroxyflavone]",did not suppress ethanol intake,0%,suppression of hamster ethanol intake [1]: do not exert any significant effect on ethanol intake
–,–,C=CCOc1ccc2c(=O)c(-c3ccc(O)cc3)coc2c1 [allyl],did not suppress ethanol intake,–,–
–,–,O=c1c(-c2ccc(O)cc2)coc2cc(O)cc(O)c12 [genestein],did not suppress ethanol intake,–,–

SMILES,"Ki [6, 8]","Ki [6, 9]",ethanol intake suppression [1],"ETOH Intake Suppression, % [1]",also measured
CCOc1ccc2c(=O)c(-c3ccc(O)cc3)coc2c1 [Compound 7],35 nM,560 nM,did not suppress ethanol intake,–,–
"CC(Br)CCCCC(=O)Oc1ccc2c(=O)c(-c3ccc(O)cc3)coc2c1 (centres unmarked) [Compound 14, 7-O-daidzein-6-bromoheptanoate]",20 nM,260 nM,–,–,"ALDH-2 inhibitory potency, in words [6]: less potent than 7-O-(6-bromohexyl)-daidzein"
"CN(C)CCC(=O)Oc1ccc2c(=O)c(-c3ccc(O)cc3)coc2c1 [Compound 18, 7-O-daidzein-3-dimethylaminopropionate]",1750 nM,24000 nM,–,–,"ALDH-2 inhibitory potency, in words [6]: less potent inhibitors relative to daidzin"
